{
  "source": "paper PMC11412156",
  "about": "(Journal of medicinal chemistry, 2024)",
  "key": {"HsEH": {"target": "T1, HsEH (Homo sapiens, UniProt P34913)", "T1 sequence (P34913 1-555)": "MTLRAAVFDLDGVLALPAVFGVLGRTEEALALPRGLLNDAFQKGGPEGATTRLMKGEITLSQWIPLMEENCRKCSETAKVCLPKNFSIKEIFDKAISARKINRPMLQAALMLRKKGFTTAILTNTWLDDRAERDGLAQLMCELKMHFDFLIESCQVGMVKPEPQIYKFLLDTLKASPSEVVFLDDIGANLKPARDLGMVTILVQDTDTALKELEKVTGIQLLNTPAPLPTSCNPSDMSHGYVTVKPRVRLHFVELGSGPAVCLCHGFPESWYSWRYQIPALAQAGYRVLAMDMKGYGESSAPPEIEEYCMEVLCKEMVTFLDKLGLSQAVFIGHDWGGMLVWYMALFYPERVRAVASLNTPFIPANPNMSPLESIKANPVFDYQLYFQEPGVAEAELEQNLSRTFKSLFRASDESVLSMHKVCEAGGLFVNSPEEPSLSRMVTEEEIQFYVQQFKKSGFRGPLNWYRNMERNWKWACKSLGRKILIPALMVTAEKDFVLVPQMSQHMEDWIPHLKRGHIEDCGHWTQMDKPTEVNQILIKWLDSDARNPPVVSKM", "test": "fluorescent-based sEH assay with PHOME as substrate", "assay_type": "biochemical"}, "MsEH": {"target": "T2, MsEH (Mus musculus, UniProt P34914)", "T2 sequence (P34914 1-554)": "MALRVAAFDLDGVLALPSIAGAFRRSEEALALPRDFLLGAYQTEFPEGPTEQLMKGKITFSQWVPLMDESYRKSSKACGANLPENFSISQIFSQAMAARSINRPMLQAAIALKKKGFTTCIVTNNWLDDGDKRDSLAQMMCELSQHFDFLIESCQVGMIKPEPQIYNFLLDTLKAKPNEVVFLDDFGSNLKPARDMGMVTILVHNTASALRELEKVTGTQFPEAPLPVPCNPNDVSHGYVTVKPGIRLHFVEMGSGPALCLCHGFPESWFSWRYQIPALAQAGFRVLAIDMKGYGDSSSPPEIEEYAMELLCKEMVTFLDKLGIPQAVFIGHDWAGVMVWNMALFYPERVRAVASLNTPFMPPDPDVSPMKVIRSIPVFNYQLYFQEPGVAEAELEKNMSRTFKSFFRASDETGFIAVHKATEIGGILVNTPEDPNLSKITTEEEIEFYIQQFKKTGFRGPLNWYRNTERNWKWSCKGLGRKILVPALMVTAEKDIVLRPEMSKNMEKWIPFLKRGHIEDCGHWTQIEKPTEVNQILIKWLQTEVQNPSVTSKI", "test": "fluorescent-based sEH assay with PHOME as substrate", "assay_type": "biochemical"}, "HDAC6": {"target": "T3, HDAC6 (Homo sapiens, UniProt Q9UBN7)", "T3 sequence (Q9UBN7 1-1215)": "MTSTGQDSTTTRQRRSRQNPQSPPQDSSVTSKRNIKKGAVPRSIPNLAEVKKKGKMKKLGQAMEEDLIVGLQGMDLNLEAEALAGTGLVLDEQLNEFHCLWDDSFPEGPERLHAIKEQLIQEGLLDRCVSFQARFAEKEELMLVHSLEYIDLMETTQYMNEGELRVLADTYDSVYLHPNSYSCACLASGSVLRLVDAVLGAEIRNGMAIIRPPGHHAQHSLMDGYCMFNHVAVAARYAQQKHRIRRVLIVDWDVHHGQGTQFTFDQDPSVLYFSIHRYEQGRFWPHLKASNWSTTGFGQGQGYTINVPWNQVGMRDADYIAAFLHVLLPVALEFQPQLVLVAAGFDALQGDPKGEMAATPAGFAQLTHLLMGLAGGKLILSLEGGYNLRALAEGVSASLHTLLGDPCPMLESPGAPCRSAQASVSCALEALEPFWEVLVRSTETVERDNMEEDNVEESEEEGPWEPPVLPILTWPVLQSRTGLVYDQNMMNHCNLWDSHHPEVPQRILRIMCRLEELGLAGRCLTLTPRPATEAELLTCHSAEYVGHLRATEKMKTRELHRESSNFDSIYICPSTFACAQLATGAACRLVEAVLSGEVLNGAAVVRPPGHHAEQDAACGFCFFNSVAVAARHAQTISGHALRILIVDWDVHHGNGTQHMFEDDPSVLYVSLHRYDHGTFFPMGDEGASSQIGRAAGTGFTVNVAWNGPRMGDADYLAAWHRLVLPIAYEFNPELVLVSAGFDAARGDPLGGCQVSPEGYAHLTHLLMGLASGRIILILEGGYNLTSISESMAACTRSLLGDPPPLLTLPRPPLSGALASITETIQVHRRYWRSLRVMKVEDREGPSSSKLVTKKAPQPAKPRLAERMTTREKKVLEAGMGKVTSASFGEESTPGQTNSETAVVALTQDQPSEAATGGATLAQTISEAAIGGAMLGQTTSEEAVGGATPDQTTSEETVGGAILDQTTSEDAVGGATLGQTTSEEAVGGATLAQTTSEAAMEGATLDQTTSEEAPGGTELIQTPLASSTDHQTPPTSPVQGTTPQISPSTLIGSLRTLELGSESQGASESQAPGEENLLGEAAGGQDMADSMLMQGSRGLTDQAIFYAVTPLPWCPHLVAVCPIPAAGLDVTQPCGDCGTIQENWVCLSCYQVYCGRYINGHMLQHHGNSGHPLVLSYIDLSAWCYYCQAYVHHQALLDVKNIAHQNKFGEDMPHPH", "test": "HDAC enzyme-based fluorogenic assay, HDAC6", "assay_type": "biochemical", "settings": "final concentration of 2 μM, preliminary screen"}, "[1]": {"system": "xylene-induced ear swelling inflammation in mice", "test": "Xylene-induced ear swelling inflammation model in mice", "assay_type": "in vivo, Kunming mice", "settings": "Table 7 dose study, 10 mg/kg by gavage for 7 days"}, "[2]": {"system": "formalin-induced inflammatory pain in mice", "test": "Formalin-induced inflammatory pain model in mice", "assay_type": "in vivo, Kunming mice", "settings": "dose study, Figure 15; 10 mg/kg, compared with the model group"}, "[3]": {"test": "In vitro metabolic stability in rat liver microsomes", "assay_type": "in vitro ADME", "settings": "for metabolic stability in RLM, column 0: incubation 0 min; for metabolic stability in RLM, column 0 / metabolic stability in RLM, column 10 / metabolic stability in RLM, column 30 / metabolic stability in RLM, column 45 / metabolic stability in RLM, column 60: 37 °C, NADPH; for metabolic stability in RLM, column 10: incubation 10 min; for metabolic stability in RLM, column 30: incubation 30 min; for metabolic stability in RLM, column 45: incubation 45 min; for metabolic stability in RLM, column 60: incubation 60 min; for t1/2 in RLM: rat liver microsomes"}},
  "data": [
    {"compound": "O=C(CCCCCCNC(=O)[C@H]1CCCN(C(=O)c2ccc(NC(=O)Nc3ccc(F)c(Cl)c3)c(F)c2)C1)NO", "note": "[Compound 28e, (S)-1-(4-(3-(3-Chloro-4-fluorophenyl)ureido)-3-fluorobenzoyl)-N-(7-(hydroxyamino)-7-oxoheptyl)piperidine-3-carboxamide]", "values": [
      {"measurement": "IC50", "setting": "HsEH", "result": 0.7, "unit": "nM"},
      {"measurement": "IC50", "setting": "MsEH", "result": 5.4, "unit": "nM"}
    ]},
    {"compound": "O=C(CCCCCCNC(=O)[C@H]1CCCN(C(=O)c2ccc(NC(=O)NC(c3ccccc3)c3ccccc3)c(F)c2)C1)NO", "note": "[Compound 28k, (S)-1-(4-(3-Benzhydrylureido)-3-fluorobenzoyl)-N-(7-(hydroxyamino)-7-oxoheptyl) piperidine-3-carboxamide]", "values": [
      {"measurement": "HDAC6 inhibitor rate", "setting": "HDAC6", "result": 63.58, "unit": "%"}
    ]},
    {"compound": "Cc1ccc(-c2cc(C(F)(F)F)nn2-c2ccc(S(N)(=O)=O)cc2)cc1", "note": "[Celecoxib, reference compound]", "values": [
      {"measurement": "Inhibition rate", "setting": "[1]", "result": 32.83, "unit": "%"},
      {"measurement": "Swelling degree", "setting": "[1]", "result": "10.5 ± 1.5", "unit": "mg"},
      {"measurement": "Swelling rate", "setting": "[1]", "result": 74.21, "unit": "%"},
      {"measurement": "pain response, second phasic response", "setting": "[2]", "result": "reduced the pain response"}
    ]},
    {"compound": "O=C(CCCCCCNC(=O)[C@H]1CCCN(C(=O)c2ccc(NC(=O)Nc3ccc(OC(F)(F)F)c(F)c3)c(F)c2)C1)NO", "note": "[Compound 28a, (S)-1-(3-Fluoro-4-(3-(3-fluoro-4-(trifluoromethoxy)phenyl)ureido)benzoyl)-N-(7-(hyd-roxyamino)-7-oxoheptyl)piperidine-3-carboxamide]", "values": [
      {"measurement": "HDAC6 inhibitor rate", "setting": "HDAC6", "result": "> 91", "unit": "%"}
    ]},
    {"compound": "C[C@]12C[C@@H]3C[C@](C)(C1)C[C@@](NC(=O)Nc1ccc(CN4CCC[C@H](C(=O)NCCCCCCC(=O)NO)C4)cc1F)(C3)C2", "note": "[Compound 16d, (S)-1-(4-(3-((1r,3R,5S,7S)-3,5-Dimethyladamantan-1-yl)ureido)-3-fluorobenzyl)-N-(7-(hydroxyamino)-7-oxoheptyl)piperidine-3-carboxamide]", "values": [
      {"measurement": "HDAC6 inhibitor rate", "setting": "HDAC6", "result": 63, "unit": "%"},
      {"measurement": "metabolic stability in RLM, column 0", "setting": "[3]", "result": 100.00},
      {"measurement": "metabolic stability in RLM, column 10", "setting": "[3]", "result": 89.16},
      {"measurement": "metabolic stability in RLM, column 30", "setting": "[3]", "result": 79.33},
      {"measurement": "metabolic stability in RLM, column 45", "setting": "[3]", "result": 52.13},
      {"measurement": "metabolic stability in RLM, column 60", "setting": "[3]", "result": 46.62},
      {"measurement": "t1/2 in RLM", "setting": "[3]", "result": 0.8165, "unit": "h"}
    ]},
    {"compound": "Cc1ccc(NC(=O)Nc2ccc(C(=O)N3CCC[C@H](C(=O)NCCCCCCC(=O)NO)C3)cc2F)cc1F", "note": "[Compound 28h, (S)-1-(3-Fluoro-4-(3-(3-fluoro-4-methylphenyl)ureido)benzoyl)-N-(7-(hydroxyamino)-7-oxoheptyl)piperidine-3-carboxamide]", "values": [
      {"measurement": "IC50", "setting": "HsEH", "result": 0.7, "unit": "nM"},
      {"measurement": "IC50", "setting": "MsEH", "result": 7.4, "unit": "nM"},
      {"measurement": "HDAC6 inhibitor rate", "setting": "HDAC6", "result": "> 91", "unit": "%"}
    ]},
    {"compound": "C[C@]12C[C@@H]3C[C@](C)(C1)C[C@@](NC(=O)Nc1ccc(C(=O)N4CCC[C@H](C(=O)NCCCCCCC(=O)NO)C4)cc1F)(C3)C2", "note": "[Compound 7d, (S)-1-(4-(3-((1r,3R,5S,7S)-3,5-Dimethyladamantan-1-yl)ureido)-3-fluorobenzoyl)-N-(7-(hydroxyamino)-7-oxoheptyl)piperidine-3-carboxamide]", "values": [
      {"measurement": "HDAC6 inhibitor rate", "setting": "HDAC6", "result": 63, "unit": "%"}
    ]},
    {"compound": "CC12CC3CC(C)(C1)CC(Nc1c(Nc4ccc(CN5CCC[C@H](C(=O)NCCCCCCC(=O)NO)C5)cc4F)c(=O)c1=O)(C3)C2", "note": "[Compound 34d, (S)-1-(4-((2-(((1r,3R,5S,7r)-3,5-Dimethyladamantan-1-yl)amino)-3,4-dioxocyclobut-1-en-1-yl)amino)-3-fluorobenzyl)-N-(7-(hydroxyamino)-7-oxoheptyl)piperidine-3-carb-oxamide]", "values": [
      {"measurement": "metabolic stability in RLM, column 0", "setting": "[3]", "result": 100.00},
      {"measurement": "metabolic stability in RLM, column 10", "setting": "[3]", "result": 82.82},
      {"measurement": "metabolic stability in RLM, column 30", "setting": "[3]", "result": 73.29},
      {"measurement": "metabolic stability in RLM, column 45", "setting": "[3]", "result": 66.27},
      {"measurement": "metabolic stability in RLM, column 60", "setting": "[3]", "result": 50.51},
      {"measurement": "t1/2 in RLM", "setting": "[3]", "result": 1.223, "unit": "h"}
    ]},
    {"compound": "Cc1cc(NC(=O)Nc2ccc(C(=O)N3CCC[C@H](C(=O)NCCCCCCC(=O)NO)C3)cc2F)ccc1F", "note": "[Compound 28i, (S)-1-(3-Fluoro-4-(3-(4-fluoro-3-methylphenyl)ureido)benzoyl)-N-(7-(hydroxyamino)-7-oxoheptyl)piperidine-3-carboxamide]", "values": [
      {"measurement": "IC50", "setting": "HsEH", "result": 1.2, "unit": "nM"},
      {"measurement": "IC50", "setting": "MsEH", "result": 7.7, "unit": "nM"}
    ]}
  ]
}
